Laboratory results published in the NIST ThermoML archive (doi:10.1021/acs.jced.5b00654).
“And” between values parts separate entries of the source, which are not always exact repeats. Equal values may be shown once. ± gives the expanded uncertainty stated by the source.

Settings: Fluid (supercritical or subcritical phases); for viscosity: Vibrating wire viscometry; for mass density: Buoyancy - hydrostatic balance with magnetic suspension - one sinker

CCCC [butane]
Settings | mass density | viscosity
348.15 K, 63.3 kPa | – | 0.008591 ± 0.00084 mPa·s
348.15 K, 337.86 kPa | 7.2315 ± 0.025 kg/m3 | 0.008603 ± 0.00084 mPa·s
348.15 K, 337.88 kPa | 7.2315 ± 0.025 kg/m3 | 0.008607 ± 0.00084 mPa·s
348.15 K, 338.38 kPa | 7.2445 ± 0.025 kg/m3 | 0.008599 ± 0.00084 mPa·s
348.15 K, 340.91 kPa | 7.3031 ± 0.025 kg/m3 | 0.008599 ± 0.00084 mPa·s
348.15 K, 454.98 kPa | 9.9811 ± 0.029 kg/m3 | 0.00861 ± 0.00084 mPa·s
348.15 K, 455.21 kPa | 9.9833 ± 0.029 kg/m3 | 0.00861 ± 0.00084 mPa·s
348.15 K, 516.69 kPa | 11.497 ± 0.032 kg/m3 | 0.008615 ± 0.00084 mPa·s
348.15 K, 516.76 kPa | 11.497 ± 0.032 kg/m3 | 0.008618 ± 0.00084 mPa·s
373.13 K, 106.93 kPa | 2.0348 ± 0.017 kg/m3 | 0.009211 ± 0.00085 mPa·s
373.13 K, 106.95 kPa | 2.0363 ± 0.017 kg/m3 | 0.009213 ± 0.00085 mPa·s
373.13 K, 106.98 kPa | 2.037 ± 0.017 kg/m3 | 0.00921 ± 0.00085 mPa·s
373.13 K, 157.77 kPa | 3.0215 ± 0.018 kg/m3 | 0.009217 ± 0.00085 mPa·s
373.13 K, 916.45 kPa | 20.053 ± 0.05 kg/m3 and 20.052 ± 0.05 kg/m3 | 0.009329 ± 0.00085 mPa·s and 0.009334 ± 0.00085 mPa·s
373.14 K, 57.69 kPa | 1.0901 ± 0.015 kg/m3 | 0.009211 ± 0.00085 mPa·s
373.14 K, 57.72 kPa | 1.0901 ± 0.015 kg/m3 | 0.009214 ± 0.00085 mPa·s
373.14 K, 57.76 kPa | 1.0909 ± 0.015 kg/m3 | 0.009207 ± 0.00085 mPa·s
373.14 K, 157.75 kPa | 3.0215 ± 0.018 kg/m3 | 0.00922 ± 0.00085 mPa·s
373.14 K, 210.39 kPa | 4.0609 ± 0.019 kg/m3 | 0.009225 ± 0.00085 mPa·s
373.14 K, 273.38 kPa | 5.3326 ± 0.021 kg/m3 | 0.00923 ± 0.00085 mPa·s
373.14 K, 274.72 kPa | 5.3593 ± 0.021 kg/m3 | 0.009227 ± 0.00085 mPa·s
373.14 K, 493.67 kPa | 9.9707 ± 0.029 kg/m3 | 0.009255 ± 0.00085 mPa·s
373.14 K, 493.81 kPa | 9.9744 ± 0.029 kg/m3 | 0.009247 ± 0.00085 mPa·s
373.14 K, 572.54 kPa | 11.724 ± 0.032 kg/m3 | 0.009263 ± 0.00085 mPa·s
373.14 K, 572.6 kPa | 11.728 ± 0.032 kg/m3 | 0.009259 ± 0.00085 mPa·s
373.14 K, 669.81 kPa | 13.955 ± 0.036 kg/m3 | 0.00928 ± 0.00085 mPa·s
373.14 K, 670 kPa | 13.959 ± 0.037 kg/m3 | 0.009283 ± 0.00085 mPa·s
373.14 K, 751.04 kPa | 15.893 ± 0.04 kg/m3 | 0.009293 ± 0.00085 mPa·s
373.14 K, 838.34 kPa | 18.049 ± 0.044 kg/m3 | 0.009315 ± 0.00085 mPa·s
373.14 K, 1095.4 kPa | 24.953 ± 0.06 kg/m3 | 0.009394 ± 0.00085 mPa·s
373.14 K, 1095.5 kPa | 24.958 ± 0.06 kg/m3 | 0.00939 ± 0.00085 mPa·s
373.14 K, 1123 kPa | – | 0.009464 ± 0.00085 mPa·s
373.14 K, 1262.7 kPa | 30.019 ± 0.075 kg/m3 | 0.009463 ± 0.00085 mPa·s
373.14 K, 1263 kPa | 30.031 ± 0.075 kg/m3 | –
373.15 K, 210.37 kPa | 4.0602 ± 0.019 kg/m3 | 0.009228 ± 0.00085 mPa·s
373.15 K, 344.33 kPa | 6.7909 ± 0.024 kg/m3 | 0.00923 ± 0.00085 mPa·s
373.15 K, 344.35 kPa | 6.7909 ± 0.024 kg/m3 | 0.009234 ± 0.00085 mPa·s
373.15 K, 392.71 kPa | 7.8028 ± 0.025 kg/m3 | 0.009241 ± 0.00085 mPa·s
373.15 K, 439.63 kPa | 8.8018 ± 0.027 kg/m3 | 0.009247 ± 0.00085 mPa·s
373.15 K, 441.23 kPa | 8.8343 ± 0.027 kg/m3 | 0.009243 ± 0.00085 mPa·s
373.15 K, 750.55 kPa | 15.881 ± 0.04 kg/m3 | 0.009298 ± 0.00085 mPa·s
373.15 K, 1366.4 kPa | 33.46 ± 0.083 kg/m3 | 0.009514 ± 0.00085 mPa·s
373.15 K, 1367.1 kPa | 33.484 ± 0.083 kg/m3 | 0.009518 ± 0.00085 mPa·s
423.11 K, 2532.5 kPa | 59.203 ± 0.16 kg/m3 | 0.01157 ± 0.00086 mPa·s
423.12 K, 2534 kPa | 59.251 ± 0.16 kg/m3 | 0.01158 ± 0.00086 mPa·s
423.13 K, 2535.6 kPa | 59.303 ± 0.16 kg/m3 | 0.01157 ± 0.00086 mPa·s
423.16 K, 195.54 kPa | 3.2893 ± 0.018 kg/m3 | 0.0104 ± 0.00085 mPa·s
423.16 K, 195.59 kPa | 3.2893 ± 0.018 kg/m3 | 0.0104 ± 0.00085 mPa·s
423.17 K, 450.91 kPa | 7.7808 ± 0.025 kg/m3 | 0.01045 ± 0.00086 mPa·s
423.17 K, 452.37 kPa | 7.8076 ± 0.025 kg/m3 | 0.01045 ± 0.00086 mPa·s
423.17 K, 1490.2 kPa | 29.071 ± 0.074 kg/m3 | 0.01078 ± 0.00086 mPa·s
423.17 K, 2272.3 kPa | 50.31 ± 0.12 kg/m3 | 0.01129 ± 0.00086 mPa·s
423.19 K, 654.26 kPa | 11.533 ± 0.032 kg/m3 | 0.0105 ± 0.00086 mPa·s
423.19 K, 1490 kPa | 29.063 ± 0.074 kg/m3 | 0.01078 ± 0.00086 mPa·s
423.19 K, 3006 kPa | 79.774 ± 0.26 kg/m3 | 0.01234 ± 0.00087 mPa·s
423.2 K, 653.48 kPa | 11.519 ± 0.032 kg/m3 | 0.01049 ± 0.00086 mPa·s
423.2 K, 2781.1 kPa | 69.059 ± 0.2 kg/m3 | 0.01191 ± 0.00087 mPa·s
423.2 K, 2781.6 kPa | 69.058 ± 0.2 kg/m3 | 0.01191 ± 0.00087 mPa·s
423.2 K, 3005.8 kPa | 79.773 ± 0.26 kg/m3 | 0.01233 ± 0.00087 mPa·s
423.2 K, 3170.2 kPa | 89.28 ± 0.32 kg/m3 | 0.01273 ± 0.00087 mPa·s
423.24 K, 1016.1 kPa | 18.65 ± 0.046 kg/m3 | 0.0106 ± 0.00086 mPa·s
423.25 K, 1015.9 kPa | 18.648 ± 0.046 kg/m3 | 0.01059 ± 0.00086 mPa·s
423.26 K, 884.12 kPa | 15.981 ± 0.04 kg/m3 | 0.01056 ± 0.00086 mPa·s
423.26 K, 884.38 kPa | 15.987 ± 0.04 kg/m3 | 0.01055 ± 0.00086 mPa·s
423.28 K, 3171.4 kPa | 89.266 ± 0.32 kg/m3 | 0.01273 ± 0.00087 mPa·s
423.47 K, 3280.9 kPa | 96.663 ± 0.37 kg/m3 | 0.01307 ± 0.00088 mPa·s
423.48 K, 3280.8 kPa | 96.642 ± 0.37 kg/m3 | 0.01306 ± 0.00088 mPa·s
424.21 K, 3176.8 kPa | 88.401 ± 0.28 kg/m3 | 0.01272 ± 0.00087 mPa·s
424.21 K, 3177 kPa | 88.415 ± 0.28 kg/m3 | 0.01273 ± 0.00087 mPa·s
428.08 K, 194.36 kPa | 3.2322 ± 0.018 kg/m3 | 0.01054 ± 0.00086 mPa·s
428.09 K, 194.34 kPa | 3.2308 ± 0.018 kg/m3 | 0.01053 ± 0.00086 mPa·s
428.09 K, 5149.9 kPa | 360.26 ± 0.75 kg/m3 | 0.04425 ± 0.0011 mPa·s
428.09 K, 5150.2 kPa | 360.25 ± 0.75 kg/m3 | –
